{
  "source": "patent US7208526B2",
  "about": "“Styrylsulfonamides” (Hoffmann-La Roche Inc., priority 2005, dated 2007)",
  "note": "pIC50: −log10 of the molar value. Counter-ions that a name gives are not always drawn.",
  "data": [
    {"test_system": "HCT 116 cells (human colon carcinoma, ATCC-No. CCl-247)", "assay": "Viability assay in HCT 116 cells (CellTiter-Glo Luminescent Cell Viability Assay)", "assay_type": "cell-based", "details": "10 concentrations 30 μM to 0.0015 μM, incubation 120 h (5 days), luminescence (ATP), triplicate", "source_text": "Viability Assay in HCT 116 Cells\nThis assay is a homogeneous method of determining the number of viable cells in culture based on quantitation of the ATP present, an indicator of metabolically active cells. The assay is designed for use with multiwell formats, making it ideal for automated high-throughput screening (HTS), cell proliferation and cytotoxicity assays. The homogeneous assay procedure involves adding a single reagent (containing luciferase, luciferan substrate, and buffer) directly to cells cultured in serum-supplemented medium. Cell washing, removal of medium and multiple pipetting steps are not required. The system detects as few as 15 cells/well in a 384-well format in 10 minutes after adding reagent and mixing.\nThe homogeneous “add-mix-measure” format results in cell lysis and generation of a luminescent signal proportional to the amount of ATP present. The amount of ATP is directly proportional to the number of cells present in culture. The above-referenced assay generates a “glow-type” luminescent signal, produced by the luciferase reaction, which has a half-life generally greater than five hours, depending on cell type and medium used. The extended half-life eliminates the need to use reagent injectors and provides flexibility for continuous or batch mode processing of multiple plates. The unique homogeneous format avoids errors that may be introduced by other ATP measurement methods that require multiple steps.\nFor the assay the cells were seeded in 384 well plates, 1000 cells per well, in the same medium. […] After 5 days the viability assay was done according to the instructions of the manufacturer. In brief: the cell-plate was equilibrated to room temperature for approximately 30 minutes and then reagent (containing luciferase, luciferan substrate, and buffer) was added. The contents were carefully mixed for 15 minutes to induce cell lysis. After 45 minutes the luminescent signal was measured in Victor 2, (scanning multiwell spectrophotometer, Wallac).\nIn order to achieve a final concentration of 30 μM as highest concentration […] of 10 mM compound stock solution were added directly to 163 μl media. Then step e) of the dilution procedure described below, was followed.\nAnalysis: • Add 30 μl of reagent containing luciferase, luciferan substrate, and buffer per well, • shake 15 minutes at room temperature • incubate further 45 minutes at room temperature without shaking\nMeasurement: • Victor 2 scanning multiwell spectrophotometer (Wallac), Luminescence mode (0.5 sec/read, 477 nm) • Determine IC50 using a non-linear curve fit (XLfit® software [ID Business Solution Ltd., Guilford, Surrey, UK])", "values": [
      {"compound": "Cc1ccc(C(=O)NS(=O)(=O)/C=C/c2ccc(Cl)c(Cl)c2)c(Br)c1", "note": "[Example 4-16, (E)-2-(3,4-Dichloro-phenyl)-ethenesulfonic acid 2-bromo-4-methyl-benzoylamide; sodium salt]", "pIC50": "4.82 to 6.30"},
      {"compound": "COc1ccccc1/C=C/S(=O)(=O)NC(=O)c1ccc(Br)cc1C", "note": "[Example 4-8, (E)-2-(2-Methoxy-phenyl)-ethenesulfonic acid 4-bromo-2-methyl-benzoylamide; sodium salt]", "pIC50": "4.82 to 6.30"},
      {"compound": "Cc1ccc(C(=O)NS(=O)(=O)/C=C/c2ccccc2)c(Br)c1", "note": "[Example 6-3, (E)-2-Phenyl-ethenesulfonic acid 2-bromo-4-methyl-benzoylamide; sodium salt]", "pIC50": "4.82 to 6.30"},
      {"compound": "COc1ccccc1/C=C/S(=O)(=O)NC(=O)c1ccc(Cl)cc1C", "note": "[Example 4-4, (E)-2-(2-Methoxy-phenyl)-ethenesulfonic acid 4-chloro-2-methyl-benzoylamide; sodium salt]", "pIC50": "4.82 to 6.30"},
      {"compound": "O=C(NS(=O)(=O)C=Cc1ccccc1)c1ccc(Cl)cc1F", "note": "[Example 1-43, 2-Phenyl-ethenesulfonic acid 4-chloro-2-fluoro-benzoylamide]", "pIC50": "4.82 to 6.30"},
      {"compound": "O=C(NS(=O)(=O)/C=C/c1ccc(C(F)(F)F)cc1)c1ccc(F)cc1Br", "note": "[Example 4-17, (E)-2-(4-Trifluoromethyl-phenyl)-ethenesulfonic acid 2-bromo-4-fluoro-benzoylamide; sodium salt]", "pIC50": "4.82 to 6.30"},
      {"compound": "O=C(NS(=O)(=O)/C=C/c1ccccc1)c1ccc(F)cc1C(F)(F)F", "note": "[Example 1-45, (E)-2-Phenyl-ethenesulfonic acid 4-fluoro-2-trifluoromethyl-benzoylamide; sodium salt]", "pIC50": "4.82 to 6.30"},
      {"compound": "Cc1ccc(/C=C/S(=O)(=O)NC(=O)c2ccc(F)cc2C(F)(F)F)c(C)c1", "note": "[Example 1-20, (E)-2-(2,4-Dimethyl-phenyl)-ethenesulfonic acid 4-fluoro-2-trifluoromethyl-benzoylamide; sodium salt]", "pIC50": "4.82 to 6.30"},
      {"compound": "Cc1ccc(C(=O)NS(=O)(=O)/C=C/c2ccc(C(F)(F)F)cc2)c(C)c1", "note": "[Example 4-40, (E)-2-(4-Trifluoromethyl-phenyl)-ethenesulfonic acid 2,4-dimethyl-benzoylamide; sodium salt]", "pIC50": "4.82 to 6.30"},
      {"compound": "Cc1ccc(/C=C/S(=O)(=O)NC(=O)c2ccc(C(F)(F)F)cc2C(F)(F)F)c(C)c1", "note": "[Example 1-26, (E)-2-(2,4-Dimethyl-phenyl)-ethenesulfonic acid 2,4-bis-trifluoromethyl-benzoylamide; sodium salt]", "pIC50": "4.82 to 6.30"},
      {"compound": "O=C(NS(=O)(=O)/C=C/c1ccc(F)cc1F)c1ccc(F)cc1Cl", "note": "[Example 1-17, (E)-2-(2,4-Difluoro-phenyl)-ethenesulfonic acid 2-chloro-4-fluoro-benzoylamide; sodium salt]", "pIC50": "4.82 to 6.30"},
      {"compound": "O=C(NS(=O)(=O)/C=C/c1ccc(F)cc1F)c1ccc(Cl)cc1Cl", "note": "[Example 1-8, (E)-2-(2,4-Difluoro-phenyl)-ethenesulfonic acid 2,4-dichloro-benzoylamide]", "pIC50": "4.82 to 6.30"},
      {"compound": "Cc1cc(Br)ccc1C(=O)NS(=O)(=O)/C=C/c1ccc(C(F)(F)F)cc1", "note": "[Example 4-35, (E)-2-(4-Trifluoromethyl-phenyl)-ethenesulfonic acid 4-bromo-2-methyl-benzoylamide; sodium salt]", "pIC50": "4.82 to 6.30"},
      {"compound": "O=C(NS(=O)(=O)/C=C/c1ccccc1Cl)c1ccc(C(F)(F)F)cc1C(F)(F)F", "note": "[Example 1-30, (E)-2-(2-Chlorophenyl)-ethenesulfonic acid 2,4-bis-trifluoromethyl-benzoylamide; sodium salt]", "pIC50": "4.82 to 6.30"},
      {"compound": "C/C(=C\\c1ccccc1)S(=O)(=O)NC(=O)c1ccc(Cl)cc1Cl", "note": "[Example 2-1, (E)-1-Phenyl-propene-2-sulfonic acid 2,4-dichloro-benzoylamide]", "pIC50": "4.82 to 6.30"},
      {"compound": "COc1ccccc1/C=C/S(=O)(=O)NC(=O)c1ccc(C)cc1Br", "note": "[Example 4-13, (E)-2-(2-Methoxy-phenyl)-ethenesulfonic acid 2-bromo-4-methyl-benzoylamide; sodium salt]", "pIC50": "4.82 to 6.30"},
      {"compound": "Cc1ccc(C(=O)NS(=O)(=O)/C=C/c2ccccc2)c(C(F)(F)F)c1", "note": "[Example 5-2, (E)-2-Phenyl-ethenesulfonic acid 4-methyl-2-trifluoromethyl-benzoylamide]", "pIC50": "4.82 to 6.30"},
      {"compound": "COc1cccc(/C=C/S(=O)(=O)NC(=O)c2ccc(F)cc2Cl)c1", "note": "[Example 1-14, (E)-2-(3-Methoxy-phenyl)-ethenesulfonic acid 2-chloro-4-fluoro-benzoylamide; sodium salt]", "pIC50": "4.82 to 6.30"},
      {"compound": "Cc1ccc(C(=O)NS(=O)(=O)/C=C/c2ccc(OC(F)(F)F)cc2)c(Br)c1", "note": "[Example 4-37, (E)-2-(4-Trifluoromethoxyphenyl)-ethenesulfonic acid 2-bromo-4-methyl-benzoylamide; sodium salt]", "pIC50": "4.82 to 6.30"},
      {"compound": "COc1cc(Cl)ccc1C(=O)NS(=O)(=O)C=Cc1ccccc1", "note": "[Example 6-1, 2-Phenyl-ethenesulfonic acid 4-chloro-2-methoxy-benzoylamide]", "pIC50": "4.82 to 6.30"},
      {"compound": "COc1ccccc1/C=C/S(=O)(=O)NC(=O)c1ccc(C)cc1C", "note": "[Example 4-31, (E)-2-(2-Methoxy-phenyl)-ethenesulfonic acid 2,4-dimethyl-benzoylamide; sodium salt]", "pIC50": "4.82 to 6.30"},
      {"compound": "Cc1ccc(/C=C/S(=O)(=O)NC(=O)c2ccc(Cl)cc2Cl)c(C)c1", "note": "[Example 1-4, (E)-2-(2,4-Dimethyl-phenyl)-ethenesulfonic acid 2,4-dichloro-benzoylamide]", "pIC50": "4.82 to 6.30"}
    ]}
  ]
}
